For 1 compound, IC50 results are on record in patent US20040132755A1, “Isoxazoles and uses thereof” (priority 2002, published 2004).

The test system of this assay is LPS-induced tumor necrosis factor-α (TNF-α) production in mixed glial cells. The assay is described as follows: In vitro CNS inflammation assay. It counts as cell-based. To be noted: Rattus norvegicus, Glial cell, 6 h, LPS 50 ng/ml, TNF-α ELISA. As to the method:
This protocol describes the procedure used to induce experimental inflammation by lipopolysacchride (LPS) in cultured CNS mixed glial cells. The anti-inflammatory effect of test compounds was evaluated against LPS-induced tumor necrosis factor-α (TNF-α) production in mixed glial cells.
The following steps were performed the day of the assay:
The mixed glial cells (7 days from initial culture) were replenished with mixed glial culture media consist of 50:50:10:1 combination of DMEM (high glucose: Invitrogen Corp), F-12 (Invitrogen Corp), 100% fetal bovine serum and 100×N-2 supplement (Invitrogen Corp). These mixed glial cells were prepared according to Park L C, Calingasan N Y, Uchida K, Zhang H, Gibson G E. (2000) “Metabolic impairment elicits brain cell type-selective changes in oxidative stress and cell death in culture.” J Neurochem 74(1):114-124 with some modification. Briefly, rat […] forebrains (1-2 day old) were isolated, triturated and plated on 96-well plates (20,000 cells per well) in mixed glial media in 5% CO2 incubator at 37° C. […]
The quantitative determination of TNF-αpresent in cell culture medium produced by mixed glial cells was performed using a solid phase sandwich enzyme linked immno-sorbent assay (ELISA) method based on the protocol and reagents provided by Biosource rat TNF-α ELISA kit (Biosource International).
(In an ELISA, binding on a coated surface is turned into a signal by an enzyme label.)

Molecules are shown by their SMILES. Bounds are passed on as bounds.

For the compound `OC1CCN(Cc2onc(-c3ccc(F)cc3)c2-c2ccnc(NC3CCCCC3)n2)CC1` [I-1], the half-inhibitory concentration (IC50) (as a rule, the midpoint of a concentration-inhibition curve) is no more than 1 µM.
